# Test results reported in US20220401439A1, “INTRANASAL PHARMACEUTICAL COMPOSITIONS OF CGRP INHIBITORS” (Biohaven Pharmaceutical Holding Company Ltd., priority 2019, published 2022).
# Assays:
# [1] = logD of drug substance; format: physicochemical; settings: mono-hydrochloride salt form
# [2] = clinical; settings: human, in vivo; for AUC(0-inf): AUC[0-inf] (ng · h/mL) GM; for AUC(0-t): AUC[0-t] (ng · h/mL) GM; for Cmax: Cmax (ng/mL) GM
# Description: BHV3500-101 is a completed Phase 1, single-center, placebo-controlled, randomized, double-blind, sequential SAD study. This study consisted of up to 11 cohorts.
# In total, 41 subjects were included in the PK analyses.
# [3] = Phase 1 multiple ascending dose (MAD) study, intranasal, pharmacokinetics; design: species or system human; settings: in vivo
# Protocol: A Phase 1, single-center, randomized, double-blind, placebo-controlled, sequential multiple ascending dose (MAD) study with 2 alternate dosing arms was conducted. […] The MAD portion of the study consists of 4 cohorts, with a maximum dose of 20 mg administered once daily for up to 14 days in 3 cohorts, and 20 mg administered twice daily for up to 8 days in the fourth cohort.
# In addition to the 4 MAD cohorts, there were 2 alternate dosing cohorts, each consisting of 1 day dosing. The first alternate dosing cohort assessed the effect of 2 sequential administrations of 20 mg (20 mg spray [100 μL of 200 mg/mL] in alternate nostrils); with a 30 minute interval between administrations. A 2nd alternate dosing cohort assessed the effect of 2 sequential administrations of 20 mg (20 mg spray [100 μL of 200 mg/mL] in alternate nostrils); with a nose blow and 5 minute interval between administrations.
# The PK data were collected from subjects in Cohorts 1 to 4.
# [4] = Phase 2/3 trial BHV3500-201 (Study 201), safety, adverse events and liver function tests; format: in vivo, human
# Description: The majority (>80%) of AEs were mild in intensity.
# [5] = pH-solubility profile of drug substance; format: physicochemical; settings: pH = 8.2; mono-hydrochloride salt form
# [6] = human, inhaled or intranasal, 5 mg
# [7] = human, inhaled or intranasal, 10 mg
# [8] = human, inhaled or intranasal, 20 mg
smiles,measurement,setting,value
"Cc1cc(C[C@@H](NC(=O)N2CCC(c3cc4ccccc4[nH]c3=O)CC2)C(=O)N2CCN(C3CCN(C)CC3)CC2)cc2cn[nH]c12 [Zavegepant, (R)—N-(3-(7-methyl-1H-indazol-5-yl)-1-(4-(1-methylpiperidin-4-yl)piperazin-1-yl)-1-oxopropan-2-yl)-4-(2-oxo-1,2-dihydroquinolin-3-yl)piperidine-1-carboxamide]",logD,[1],1.21
same,"median Tmax, range across doses",[2],32.4 to 46.2 min
same,"median t1/2, range across doses",[2],150 to 264 min
same,AUC(0-inf),"[2]; inhaled or intranasal, 1 mg",3.5 ng·h/mL
same,AUC(0-t),"[2]; inhaled or intranasal, 1 mg",2.34 ng·h/mL
same,Cmax,"[2]; inhaled or intranasal, 1 mg",1.34 ng/mL
same,Tmax,"[2]; inhaled or intranasal, 1 mg, Tmax (h) Median",57.6 min
same,half-life,"[2]; inhaled or intranasal, 1 mg, t1/2 el (h) Median",98.4 min
same,AUC(0-inf),"[2]; inhaled or intranasal, 3 mg",9.75 ng·h/mL
same,AUC(0-t),"[2]; inhaled or intranasal, 3 mg",7.85 ng·h/mL
same,Cmax,"[2]; inhaled or intranasal, 3 mg",3.68 ng/mL
same,Tmax,"[2]; inhaled or intranasal, 3 mg, Tmax (h) Median",46.8 min
same,half-life,"[2]; inhaled or intranasal, 3 mg, t1/2 el (h) Median",134 min
same,AUC(0-inf),"[2]; inhaled or intranasal, 5 mg",20.9 ng·h/mL
same,AUC(0-t),"[2]; inhaled or intranasal, 5 mg",18.8 ng·h/mL
same,Cmax,"[2]; inhaled or intranasal, 5 mg",7.8 ng/mL
same,Tmax,"[2]; inhaled or intranasal, 5 mg, Tmax (h) Median",36 min
same,half-life,"[2]; inhaled or intranasal, 5 mg, t1/2 el (h) Median",142 min
same,Tmax (h) Median,"[2]; inhaled or intranasal, 10 mg",0.54 h
same,AUC(0-inf),"[2]; inhaled or intranasal, 10 mg",28.5 ng·h/mL
same,AUC(0-t),"[2]; inhaled or intranasal, 10 mg",26.2 ng·h/mL
same,Cmax,"[2]; inhaled or intranasal, 10 mg",13.4 ng/mL
same,Tmax,"[2]; inhaled or intranasal, 10 mg, Tmax (h) Median",32.4 min
same,half-life,"[2]; inhaled or intranasal, 10 mg, t1/2 el (h) Median",175 min
same,Tmax,"[2]; inhaled or intranasal, Tmax (h) Median",46.2 min
same,half-life,"[2]; inhaled or intranasal, t1/2 el (h) Median",143 min
same,Tmax,"[2]; median Tmax, range across doses",32.4 to 57.6 min
same,half-life,"[2]; median t1/2, range across doses",96 to 282 min
same,half-life,"[3]; human, 20 mg",3.69 to 4.93 h
same,Tmax,"[3]; human, Tmax",~30 min
same,AUC,[3]; [6],20.7 ng·h/mL
same,AUC0-24 (ng*h/mL) geometric mean,[3]; [6],24.95 ng·h/mL
same,AUC0-τ ss (ng*h/mL) geometric mean,[3]; [6],20.66 ng·h/mL
same,AUC(0-inf),[3]; [6],22.4 ng·h/mL
same,Cl/F (L/h) Mean,[3]; [6],293.27 L/h
same,Tmax (h) Mean,[3]; [6],0.52 h
same,Vd/F,[3]; [6],1570 L
same,half-life,[3]; [6],3.69 h
same,AUC(0-t),"[3]; human, inhaled or intranasal, 5 mg, AUC0-24 (ng*h/mL) geometric mean",24.9 ng·h/mL
same,AUC(0-t),"[3]; human, inhaled or intranasal, 5 mg, AUC0-t (ng*h/mL) geometric mean",19 ng·h/mL
same,Tmax,"[3]; human, inhaled or intranasal, 5 mg, Tmax (h) Mean",31.2 min
same,AUC,[3]; [7],32.9 ng·h/mL
same,AUC0-24 (ng*h/mL) geometric mean,[3]; [7],29.61 ng·h/mL
same,AUC0-τ ss (ng*h/mL) geometric mean,[3]; [7],32.85 ng·h/mL
same,AUC(0-inf),[3]; [7],33.9 ng·h/mL
same,Cl/F (L/h) Mean,[3]; [7],341.09 L/h
same,Tmax (h) Mean,[3]; [7],0.57 h
same,Vd/F,[3]; [7],1660 L
same,half-life,[3]; [7],3.84 h
same,AUC(0-t),"[3]; human, inhaled or intranasal, 10 mg, AUC0-24 (ng*h/mL) geometric mean",29.6 ng·h/mL
same,AUC(0-t),"[3]; human, inhaled or intranasal, 10 mg, AUC0-t (ng*h/mL) geometric mean",30.9 ng·h/mL
same,Tmax,"[3]; human, inhaled or intranasal, 10 mg, Tmax (h) Mean",26.4 min
same,AUC,[3]; [8],91 ng·h/mL
same,AUC0-24 (ng*h/mL) geometric mean,[3]; [8],80.09 ng·h/mL
same,AUC0-τ ss (ng*h/mL) geometric mean,[3]; [8],90.98 ng·h/mL
same,AUC(0-inf),[3]; [8],92.4 ng·h/mL
same,Cl/F (L/h) Mean,[3]; [8],254.40 L/h
same,Tmax (h) Mean,[3]; [8],0.56 h
same,Vd/F,[3]; [8],1740 L
same,AUC(0-t),"[3]; human, inhaled or intranasal, 20 mg, AUC0-24 (ng*h/mL) geometric mean",80.1 ng·h/mL
same,AUC(0-t),"[3]; human, inhaled or intranasal, 20 mg, AUC0-t (ng*h/mL) geometric mean",87.9 ng·h/mL
same,Cmax,"[3]; human, inhaled or intranasal, 20 mg, Cmax (ng/mL) geometric mean",34.7 ng/mL
same,Tmax,"[3]; human, inhaled or intranasal, 20 mg, Tmax (h) Mean",34.2 min
same,half-life,"[3]; human, inhaled or intranasal, 20 mg once daily intranasal (Cohort 3), Day 14, read-out: T1/2 el (h) Mean (converted)",4.93 h
same,concentration at 0.5 h,"[3]; human, 5 mg, Day 14, nominal time 0.500 h, read-out: Plasma Concentrations (ng/mL) Mean",8.08 ng/mL
same,urine concentrations,[3],below the limit of quantitation
same,ALT or AST > 3 × ULN (subjects),[4]; 5 mg (N = 388),0
same,Bilirubin > 2 × ULN (subjects),[4]; 5 mg (N = 388),0
same,ALT or AST > 3 × ULN (subjects),[4]; 10 mg (N = 394),0
same,Bilirubin > 2 × ULN (subjects),[4]; 10 mg (N = 394),0
same,ALT or AST > 3 × ULN (subjects),[4]; 20 mg (N = 403),0
same,Bilirubin > 2 × ULN (subjects),[4]; 20 mg (N = 403),0
same,ALT or AST > 3 × ULN (subjects),[4]; All zavegepant (N = 1185),0
same,Bilirubin > 2 × ULN (subjects),[4]; All zavegepant (N = 1185),0
same,"hepatotoxicity signal (AST or ALT >3xULN, total bilirubin >2xULN)",[4]; any treatment arm,no signal of hepatoxicity
same,tolerability and safety,"[4]; intranasal, single dose trial",well tolerated and safe
same,AEs mild in intensity,[4]; single dose trial,> 80%
same,pH-solubility profile,[5],105 mg/mL at pH = 8.2
